Results on five compounds are retold here after patent US20020058266A1, “EF-Tu protein encoded on the plastid DNA of the malaria parasite and protein synthesis inhibitors effective as anti-malarial compounds” (priority 1997, published 2002).

Data set [1] deals with erythrocytic stages of P.falciparum. Briefly: Incorporation of radiotracers (3H-hypoxanthine, 14C-isoleucine) by P.falciparum growing in blood cultures. The data set is classed as cell-based, Plasmodium falciparum. The procedure:
Antibiotics—Samples of Mocimycin (kirromycin), Aurodox (N-methylated kirromycin), and Efrotomycin (a glycoside of kirromycin) were used. Aurodox was dissolved in RPMI-Albumax medium (Grande et al 1977), kirromycin was dissolved in RPMI made alkaline by addition of 1M NaOH, and efrotomycin was dissolved in ethanol before dilution in culture medium. Enacyloxin IIA was dissolved in 1% NaHCO3 prior to dilution in RPMI-Albumax medium. The antibiotic GE2270A was dissolved in 100% DMSO before dilution in culture medium. Fusidic acid (Sigma) was dissolved directly in culture medium, and thiostrepton (Sigma) in 100% DMSO before dilution in culture medium. A hemisuccinate form of thiostrepton was prepared as a potassium salt, according to Bodanszky et al 1965. Incorporation of radiotracers by P.falciparum growing in blood cultures in the presence and absence of drugs was carried out as described (Strath et al 1993).
(§1) Kirromycin: Kirromycin-resistant forms of bacterial EF-Tu are modified at one of seven amino acids along the opposing interfaces of domains I and III (Mesters et al 1994 and Abdulkarim et al 1994) and Pf EF-Tupl has a substitution at one of these sites (A375S-E.coli numbers) that could potentially confer resistance to kirromycin. To test this possibility, kirromycin (Mocimycin), its methylated derivative Aurodox or its disaccharide derivative Efrotomycin were incubated with erythrocytic stages of P.falciparum grown in cultures over a 36 hr period. The incorporation of both ^3H-hypoxanthine and ^14C-isoleucine was inhibited in a dose-dependent fashion, maximum inhibition being achieved at 100 μM kirromycin (FIG. 5). […] Once maximal depression of incorporation had been reached at any particular dose of drug, residual incorporation continued at a uniform rate thereafter. Vital staining with rhodamine 123, a fluorescent dye that concentrates within the mitochondrion (Divo et al. 1985) confirmed the parasiticidal effect, loss of specific mt staining being evident within 2-3 hours (data not shown). […] Blood cultures of P.falciparum were about 10 times more sensitive to the antibiotic than a gram-positive bacterium (Corynebacterium spp) used in parallel bioassays.

For data set [2], the system named is P.falciparum. The data set can be described thus: Vital staining with rhodamine 123 (mitochondrial staining of parasites). The data set is classed as cell-based, Plasmodium falciparum. To be noted: data not shown. As for the experimental part: as §1
Data set [3] deals with P.falciparum. The data set can be described thus: Treatment of parasites, removal of antibiotic by washing and 2 weeks follow-up in vitro. The data set is classed as cell-based, Plasmodium falciparum. To be noted: 1 mM for 1.5 cell cycles, washing, follow-up for 2 weeks in vitro.
A further data set has as its system Corynebacterium spp. The data set can be described thus: Parallel bioassay with a gram-positive bacterium. In kind it is cell-based. The note with it: parallel bioassays. As for the experimental part: as §1
The subject of the next data set is P.chabaudi. Briefly: Mice infected with P.chabaudi. The data set is classed as in vivo. The note with it: intraperitoneally 0.1 ml of 100 mM. As for the experimental part:
The solid line is for aurodox, the dotted line is for mocimycin and the dashed line is for no drug controls. The arrows on the x-axis indicate days on which three 0.1 ml 100 mM ip injections were given.
On the basis of these findings, preliminary studies were carried out on mice infected with P.chabaudi. In the first experiment, mice were infected and inoculated on the same day intraperitoneally with 0.1 ml of 100 mM Aurodox, a dose calculated to mimic the maximal inhibitory effect observed in vitro. […] In a single experiment.

The conditions of data set [4]: in vivo; cited from earlier work.
Data set [5] deals with T1, heterologously expressed Pf EF-Tupl (Plasmodium falciparum, UniProt Q25820).
T1 construct: one clone in JM109 contained the complete insert; GST (cleaved yes); made in house; host or cells: E. coli JM109 (pGEX)
The data set can be described thus: Band shift in native polyacrylamide gel with expressed Pf EF-Tupl. The data set is classed as binding. The note with it: 100 μM antibiotic, 100 μM GDP, native 12% polyacrylamide gel. As for the experimental part: FIG. 13 contains immunoblots showing that binding of antibiotics modifies migration of EF-Tu.GDP in native polyacrylamide gels. Two segments of the same gel show A) heterologously expressed Pf EF-Tupl protein detected with a malaria peptide-specific antibody and B) E.coli EF-Tu detected with a specific antibody (Breidenbach et al 1990). Lanes without antibiotics (1 and 5), lanes with 100 μM antibiotic: GE2270A (2 and 6), enacyloxin lla (3 and 7), kirromycin (4 and 8). Arrows indicate uncomplexed EF-Tu.
Drug binding—Thiostrepton binding to short rRNA transcripts generated in vitro was assayed according to Ryan et al 1991, as modified by Clough et al 1997. […] Before […], samples were incubated on ice for 15 mins in 50 mM imidazole acetate (pH 7.6), 10 mM NH4Cl, 10 mM MgCl2, 1 mM […] and 100 μM GDP, in a final volume of 20 μl.
The material tufA gene in pGEX was expressed as an insoluble fusion protein in E.coli JM 109. The protein was detected either with antibodies to the GST tag or with antibodies to a specific peptide sequence in domain I ([…]) not found on E.coli EF-Tu. Washed inclusion bodies were dissolved and refolded by dilution (Lin et al 1991).

A further data set concerns eukaryotic cells. To be noted: at 100 μM; cited from earlier work.
Data set [6] relates to Pf 28S cytosolic rRNA (cytosolic ribosomes). The data set can be described thus: Puromycin shift of polysomes on sucrose gradients, cytosolic rRNA probe. The note with it: 2 mM puromycin; anisomycin 3 mM pre-treatment. In kind it is biochemical, Plasmodium falciparum. As for the experimental part:
(§2) Polysome preparation and puromycin shift—P.falciparum was grown in blood cultures (Trager et al 1976) and ribosomes prepared as described (Sherman et al 1975). Parasitized erythrocytes were lysed for 1 hr on ice in a buffer containing 0.14% Nonidet P-40 (Trade Name), 25 mM KCl, 10 mM MgCl2, 380 mM-sucrose, 6.5 mM β-mercaptoethanol and 50 mM Tris HCl, pH 7.6. The lysate was centrifuged×3 at 10,000 g for 10 min at 4° C. to remove genomic DNA and other cell debris before further centrifugation at 105,000 g for 1 hr in an SW40 rotor (Trade Name, Beckman) at 4° C. The resulting pellet was resuspended in 25 mM KCl, 5 mM MgCl2 and 50 mM Tris HCl (pH 7.6) and homogenized by hand (×50 strokes) with a glass dounce homogenizer (Wheatstone, USA). The suspension was centrifuged at 10,000 g for 10 min at 4° C. and the crude pellet discarded before further centrifugation for 2 hr at 105,000 g in an SW55 rotor (Beckman) at 4° C. The pellet was resuspended in 10 mM Tris HCl, 10 mM MgCl2, 100 mM KCl and homogenized again to give a suspension of ribosomes. […]
(§3) In an experiment with RNase (Cox 1969), total polysomes were incubated with a range of concentrations of RNase (1-13 ng ml^−1 ribosomes, Boehringer) prior to centrifugation for 30 min at 26° C. […] Hybridization signals were quantitated using a Molecular Dynamics phosphor imager. […]

Data set [7] has as its system Pf 16S rRNApl (plastid ribosomes). The data set can be described thus: Puromycin shift of polysomes on sucrose gradients, plastid rRNA probe. To be noted: 2 mM puromycin; anisomycin 3 mM pre-treatment. The data set is classed as biochemical, Plasmodium falciparum. As for the experimental part:
as §2, §3

T1 sequence (Q25820 whole entry): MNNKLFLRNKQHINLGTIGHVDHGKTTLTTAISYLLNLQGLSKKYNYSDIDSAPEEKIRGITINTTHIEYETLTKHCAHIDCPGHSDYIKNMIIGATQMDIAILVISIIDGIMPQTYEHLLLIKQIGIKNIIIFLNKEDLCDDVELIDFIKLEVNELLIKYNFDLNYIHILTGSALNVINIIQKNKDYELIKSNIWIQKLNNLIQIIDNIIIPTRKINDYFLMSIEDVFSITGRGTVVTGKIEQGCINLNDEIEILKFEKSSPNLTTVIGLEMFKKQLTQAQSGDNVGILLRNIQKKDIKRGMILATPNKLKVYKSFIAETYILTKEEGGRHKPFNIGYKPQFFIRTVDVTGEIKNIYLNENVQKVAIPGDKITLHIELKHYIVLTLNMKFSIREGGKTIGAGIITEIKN

For the compound `C/C=C\C=C\[C@@H]1O[C@](O)([C@H](CC)C(=O)NC/C=C/C=C(\C)[C@@H](OC)[C@@H](C)[C@@H]2O[C@H](/C=C/C=C/C=C(\C)C(=O)c3c(O)ccn(C)c3=O)[C@H](O)[C@@H]2O)[C@H](O)[C@H](O)C1(C)C` [Aurodox, 1-methylmocimycin], the “first inhibitory effects on ring stage parasites, time after exposure” value in [1] (synchronized cultures) is “as early as five hours”. In [1] (synchronized cultures, ring stage parasites), the “inhibitory effects maximal, time of exposure” value worked out at 10 h. In the data set on P.falciparum [2], the “loss of specific mt staining evident, time” value lay within 2 to 3 h. For the same compound, in the data set on P.falciparum [3], the “parasite death or stasis” value is reported as “parasite death rather than stasis”. Besides, the “sensitivity of P.falciparum blood cultures relative to Corynebacterium spp” value in the data set with Corynebacterium spp is reported as “about 10 times”. The “development of the infection in mice” value in the data set on P.chabaudi is “lag in development of the infection compared with untreated controls”.
Consider `C/C=C/C=C/[C@@H]1O[C@](O)([C@H](CC)C(=O)NC/C=C/C=C(\C)[C@@H](OC)[C@@H](C)[C@@H]2O[C@H](/C=C/C=C/C=C(\C)C(=O)c3c(O)ccn(C)c3=O)[C@H](O)[C@@H]2O)[C@H](O)[C@H](O[C@@H]2O[C@H](C)[C@@H](O[C@@H]3O[C@@H](C)[C@H](OC)[C@@H](O)[C@H]3OC)[C@@H](OC)[C@H]2O)C1(C)C` [Efrotomycin], for which the “oral absorption and plasma half-life” value in [4] is “rapid oral absorption and prolonged plasma half-life”.
Regarding kirromycin, the “concentration at which maximum inhibition of radiotracer incorporation was achieved” value in data set [1] (3H-hypoxanthine and 14C-isoleucine, cultures over a 36 hr period) was 100 µM. Moreover, the “development of the infection in mice” value in the data set on P.chabaudi is on record as “less effective in vivo than Aurodox”. Further, the “mobility (Mr) of the GDP form of the EF-Tu complex” value in data set [5] is “increased”. For the same compound, in the data set with eukaryotic cells, the “effect on RNA, DNA and protein synthesis” value was “blocks RNA synthesis without affecting DNA or protein synthesis”.
With `COc1ccc(C[C@H]2NC[C@H](O)[C@H]2OC(C)=O)cc1` [anisomycin], the “puromycin-shift of the hybridization signal, cytosolic rRNA” value in data set [6] is “blocked the puromycin-induced shift”.
As to `COc1ccc(C[C@H](N)C(=O)N[C@H]2[C@@H](O)[C@H](n3cnc4c(N(C)C)ncnc43)O[C@@H]2CO)cc1` [puromycin], in [6], the “puromycin-shift of the hybridization signal, cytosolic rRNA” value was “caused a shift”. For the same compound, the “puromycin-shift of the hybridization signal, plastid rRNA” value in [7] is reported as “caused a shift”.
